# Reference: article PMC3522794 (Nature chemical biology, 2012)
# How the values were obtained:
# HCK^Y527F = HCK^Y527F (Homo sapiens, UniProt P08631, Y522F); test: Pull-down assay to determine SH3 domain accessibility; assay type: binding; conditions: inhibitor 5 µM (saturating), kinase 100 nM; mean ± SEM, n=3
# [1] = biological target: SNAP-tag-polyproline (PP) peptide fusion (…); test: pull-down
"Percent kinase eluted (retained on PP ligand beads), HCK^Y527F (HCK^Y527F)",Compound,percent of loaded kinase retained on the beads [1]
27%,"Cc1nc(Nc2ncc(C(=O)Nc3c(C)cccc3Cl)s2)cc(N2CCN(CCO)CC2)n1 [Dasatinib, dasatinib]",–
–,"HCK^Y527F (HCK residues 84–531, Y527F, SRC residue numbering) (enzyme)",27%
